The values that follow come from US20040121947A1, “Compounds which inhibit beta-secretase activity and methods of use thereof” (Oklahoma Medical Research Foundation, priority 2000, published 2004).

The target in this assay is T1, memapsin 2 (Homo sapiens, UniProt P56817).
T1 construct: pET-11 vector-derived residues 1-15 of promemapsin 2-T1 (N, cleaved yes); made in house; host or cells: E. coli
Kind of assay: Inhibition of memapsin 2 proteolytic activity, fluorogenic substrate FS-2. Particulars: for Ki / Ki app: memapsin 2. The format is biochemical. The protocol:
Ki is the inhibition equilibrium constant which indicates the ability of compounds to inhibit the β-secretase activity of memapsin 2 and memapsin 1. […] The K1 value is independent of the substrate, and converted from Ki apparent.
The Vi/Vo values depicted in Table 1 were determined at conditions under which the enzyme and inhibitor concentrations were equal (e.g., about 80 nM, 100 nM).
The relationship of Ki (independent of substrate concentration) to Kiapp is a function of substrate concentration in the assay and the Km for cleavage of the substrate by either memapsin 1 or memapsin 2 by the relationship:
The spontaneously activated memapsin 2 was employed in assays to assess the inhibition of memapsin 2 relative to memapsin 1 by compounds of the invention and in some crystallization studies.
An aliquot of the inhibitor of known concentration in DMSO was diluted into 1.8 ml 0.1 M NaOAc, pH 4.0. DMSO and added to a final concentration of 10% (v/v), and memapsin 2 (final concentration of 80 nM), followed by a 20 minute equilibration at 37° C. Compounds were evaluated for the ability to inhibit memapsin 1 and memapsin 2 at concentrations between about 10 nM and about 10 μm of inhibitor.

Where [1] appears, read: independent of substrate, converted from Ki apparent, read-out: Ki.
The mark [2] stands for this setting: apparent Ki in presence of substrate FS-2, read-out: Ki app.
The mark [3] stands for this setting: apparent Ki in presence of substrate FS-2.
Setting [4] is: independent of substrate, converted from Ki apparent.

Each structure is given as a SMILES string. Like-named read-outs stand apart in the source and are kept apart here.

T1 sequence (P56817 41-454 limits assumed): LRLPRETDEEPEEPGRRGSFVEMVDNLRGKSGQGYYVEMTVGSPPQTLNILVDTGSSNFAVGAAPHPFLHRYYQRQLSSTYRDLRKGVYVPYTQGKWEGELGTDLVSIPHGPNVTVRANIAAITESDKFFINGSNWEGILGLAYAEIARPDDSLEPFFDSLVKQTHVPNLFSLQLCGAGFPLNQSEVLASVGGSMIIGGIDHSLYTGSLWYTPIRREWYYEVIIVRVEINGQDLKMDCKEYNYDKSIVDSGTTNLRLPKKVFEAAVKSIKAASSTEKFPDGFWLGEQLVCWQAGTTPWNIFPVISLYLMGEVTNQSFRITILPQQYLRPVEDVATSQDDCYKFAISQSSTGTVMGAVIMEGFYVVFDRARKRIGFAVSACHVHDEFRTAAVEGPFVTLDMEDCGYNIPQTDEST

`CC(C)C[C@H](NC(=O)OC(C)(C)C)[C@@H](O)C[C@@H](C)C(=O)N[C@@H](C)C(=O)NCc1ccccc1` [MMI-001]: the Ki under setting [1] was 2370 µM.

For `CSCC[C@H](NC(=O)[C@H](C)NC(=O)[C@H](C)C[C@H](O)[C@H](CC(C)C)NC(=O)OC(C)(C)C)C(=O)NCc1ccccc1` [MMI-002], the Ki under setting [1] worked out at 274 µM.

In the case of `CC(C)C[C@H](NC(=O)OC(C)(C)C)[C@@H](O)C[C@@H](C)C(=O)N[C@@H](C)C(=O)N[C@@H](CCS(C)(=O)=O)C(=O)NCc1ccccc1` [MMI-003], the Ki under setting [1] turned out to be 1660 µM.

For `CC(C)C[C@H](NC(=O)[C@H](CC(N)=O)NC(=O)[C@@H](NC(=O)OC(C)(C)C)C(C)C)[C@@H](O)C[C@@H](C)C(=O)N[C@@H](C)C(=O)NCc1ccccc1` [MMI-005], the Ki reads like this: under setting [2], 0.126 µM; under setting [1], 0.0789 µM.

Regarding `CSCC[C@H](NC(=O)OC(C)(C)C)C(=O)N[C@@H](CC(C)C)[C@@H](O)C[C@@H](C)C(=O)N[C@@H](C)C(=O)NCc1ccccc1` [MMI-006], the Ki runs as follows: under setting [2], 63.3 µM; under setting [1], 40.2 µM.

In the case of `CC(C)C[C@H](NC(=O)[C@H](CCS(C)(=O)=O)NC(=O)OC(C)(C)C)[C@@H](O)C[C@@H](C)C(=O)N[C@@H](C)C(=O)NCc1ccccc1` [MMI-007], the Ki runs as follows: under setting [2], 49.9 µM; under setting [1], 31.7 µM.

On to `CSCC[C@H](NC(=O)[C@@H](NC(=O)OC(C)(C)C)C(C)C)C(=O)N[C@@H](CC(C)C)[C@@H](O)C[C@@H](C)C(=O)N[C@@H](C)C(=O)NCc1ccccc1` [MMI-008], for which the Ki under setting [2] was found to be 0.0736 µM and the Ki under setting [1] is 0.046 µM.

As to `CC(C)C[C@H](NC(=O)[C@H](CCS(C)(=O)=O)NC(=O)[C@@H](NC(=O)OC(C)(C)C)C(C)C)[C@@H](O)C[C@@H](C)C(=O)N[C@@H](C)C(=O)NCc1ccccc1` [MMI-009], the Ki is, setting by setting: under setting [2], 0.0899 µM; under setting [1], 0.0562 µM.

`C=CC[C@H](C[C@H](O)[C@H](CC(C)C)NC(=O)[C@H](CC(N)=O)NC(=O)OC(C)(C)C)C(=O)N[C@H](C(=O)NCc1ccccc1)C(C)C` [MMI-010]: the Ki turned out to be 29.4 µM under setting [2] and 18.7 µM under setting [1].

Take `CC(C)C[C@H](NC(=O)[C@H](CC(N)=O)NC(=O)OC(C)(C)C)[C@@H](O)C[C@@H](C)C(=O)N[C@H](C(=O)NCc1ccccc1)C(C)C` [MMI-011]: the Ki is 4.88 µM under setting [2] and 3.1 µM under setting [1].

With `CC(C)C[C@H](NC(=O)[C@H](CC(N)=O)NC(=O)[C@@H](NC(=O)OC(C)(C)C)C(C)C)[C@@H](O)C[C@@H](C)C(=O)N[C@H](C(=O)NCc1ccccc1)C(C)C` [MMI-012], the Ki under setting [2] is 0.0091 µM and the Ki under setting [1] was determined as 0.00568 µM.

As to `CSCC[C@H](NC(=O)OC(C)(C)C)C(=O)N[C@@H](CC(C)C)[C@@H](O)C[C@@H](C)C(=O)N[C@H](C(=O)NCc1ccccc1)C(C)C` [MMI-015], the Ki reads like this: under setting [2], 9.04 µM; under setting [1], 5.65 µM.

Take `CC(C)C[C@H](NC(=O)[C@H](CCS(C)(=O)=O)NC(=O)OC(C)(C)C)[C@@H](O)C[C@@H](C)C(=O)N[C@H](C(=O)NCc1ccccc1)C(C)C` [MMI-016]: the Ki reads like this: under setting [2], 5.64 µM; under setting [1], 3.53 µM.

For the compound `CC(C)C[C@H](NC(=O)[C@@H](NC(=O)[C@@H](NC(=O)OC(C)(C)C)C(C)C)[C@@H]1CCOC1)[C@@H](O)C[C@@H](C)C(=O)N[C@H](C(=O)NCc1ccccc1)C(C)C` [MMI-020], the Ki is, setting by setting: under setting [2], 1.61 µM; under setting [1], 1 µM.

`C=CC[C@H](C[C@H](O)[C@H](CC(C)C)NC(=O)[C@H](CC(N)=O)NC(=O)[C@@H](NC(=O)OC(C)(C)C)C(C)C)C(=O)N[C@H](C(=O)NCc1ccccc1)C(C)C` [MMI-021]: the Ki reads like this: under setting [2], 0.112 µM; under setting [1], 0.0701 µM.

For `CSC[C@H](NC(=O)OC(C)(C)C)C(=O)N[C@@H](CC(C)C)[C@@H](O)C[C@@H](C)C(=O)N[C@H](C(=O)NCc1ccccc1)C(C)C` [MMI-023], the Ki is 15.3 µM under setting [2] and 9.55 µM under setting [1].

On to `CC(C)C[C@H](NC(=O)[C@H](CS(C)(=O)=O)NC(=O)OC(C)(C)C)[C@@H](O)C[C@@H](C)C(=O)N[C@H](C(=O)NCc1ccccc1)C(C)C` [MMI-024], for which the Ki was 1.44 µM under setting [2] and 0.902 µM under setting [1].

On to `CSC[C@H](NC(=O)[C@@H](NC(=O)OC(C)(C)C)C(C)C)C(=O)N[C@@H](CC(C)C)[C@@H](O)C[C@@H](C)C(=O)N[C@H](C(=O)NCc1ccccc1)C(C)C` [MMI-025], for which the Ki runs as follows: under setting [2], 0.0655 µM; under setting [1], 0.0409 µM.

`CCC[C@H](C[C@H](O)[C@H](CC(C)C)NC(=O)[C@H](CSC)NC(=O)O[C@@H]1C[C@@H]2CCO[C@@H]2C1)C(=O)N[C@H](C(=O)NCc1ccccc1)C(C)C` [MMI-027]: the Ki is, setting by setting: under setting [2], 11.5 µM; under setting [1], 7.22 µM.

Take `CCC[C@H](C[C@H](O)[C@H](CC(C)C)NC(=O)[C@H](CSC)NC(=O)O[C@H]1CO[C@H]2OCC[C@H]21)C(=O)N[C@H](C(=O)NCc1ccccc1)C(C)C` [MMI-028]: the Ki is, setting by setting: under setting [2], 9.87 µM; under setting [1], 6.17 µM.

As for `CCC[C@H](C[C@H](O)[C@H](CC(C)C)NC(=O)[C@H](CSC)NC(=O)O[C@H]1CCOC1)C(=O)N[C@H](C(=O)NCc1ccccc1)C(C)C` [MMI-029], the Ki is 1.7 µM under setting [2] and 1.06 µM under setting [1].

For the compound `CSCC[C@H](NC(=O)[C@@H](NC(=O)OC(C)(C)C)C(C)C)C(=O)N[C@@H](CC(C)C)[C@@H](O)C[C@@H](CC(F)(F)F)C(=O)N[C@H](C(=O)NCc1ccccc1)C(C)C` [MMI-030], the Ki runs as follows: under setting [2], 8.52 µM; under setting [1], 5.32 µM.

Consider `CCC[C@H](C[C@H](O)[C@H](CC(C)C)NC(=O)[C@H](CSC)NC(=O)OCc1cccnc1)C(=O)N[C@H](C(=O)NCc1ccccc1)C(C)C` [MMI-031], for which the Ki by setting is: under setting [2], 0.864 µM; under setting [1], 0.539 µM.

Regarding `CCC[C@H](C[C@H](O)[C@H](CC(C)C)NC(=O)[C@H](CSC)NC(=O)c1cccc(O)c1C)C(=O)N[C@H](C(=O)NCc1ccccc1)C(C)C` [MMI-032], the Ki is, setting by setting: under setting [2], 1.34 µM; under setting [1], 0.838 µM.

In the case of `CSCC[C@H](NC(=O)[C@@H](NC(=O)OC(C)(C)C)C(C)C)C(=O)N[C@@H](CC(C)C)[C@@H](O)C[C@@H](C)C(=O)N[C@H](C(=O)NCc1ccccc1)C1CCCO1` (stereo partly shown) [MMI-034], the Ki is, setting by setting: under setting [2], 0.223 µM; under setting [1], 0.139 µM.

On to `CC(C)C[C@H](NC(=O)[C@H](CCS(C)(=O)=O)NC(=O)[C@@H](NC(=O)OC(C)(C)C)C(C)C)[C@@H](O)C[C@@H](C)C(=O)N[C@H](C(=O)NCc1ccccc1)C1CCCO1` (stereo partly shown) [MMI-035], for which the Ki by setting is: under setting [2], 0.426 µM; under setting [1], 0.266 µM.

Consider `CSCC[C@H](NC(=O)[C@@H](NC(=O)OC(C)(C)C)C(C)C)C(=O)N[C@@H](CC(C)C)[C@@H](O)C[C@@H](CC(C)C)C(=O)NC1CCN(Cc2ccccc2)CC1` [MMI-036], for which, under setting [3], the Ki app entry is recorded as “N.I”. The Ki result under setting [4] is listed as “N.I”.

Turning to `CSCC[C@H](NC(=O)[C@@H](NC(=O)OC(C)(C)C)C(C)C)C(=O)N[C@@H](CC(C)C)[C@@H](O)C[C@@H](CCO)C(=O)N[C@H](C(=O)NCc1ccccc1)C(C)C` [MMI-037], the Ki runs as follows: under setting [2], 0.104 µM; under setting [1], 0.0648 µM.

In the case of `CSCC[C@H](NC(=O)[C@@H](NC(=O)OC(C)(C)C)C(C)C)C(=O)N[C@@H](CC(C)C)[C@@H](O)C[C@@H](CC(N)=O)C(=O)N[C@H](C(=O)NCc1ccccc1)C(C)C` [MMI-038], the Ki under setting [2] was found to be 0.106 µM and the Ki under setting [1] turned out to be 0.0662 µM. Moreover, for the setting “ratio of initial cleavage velocities of FS-2 with/without compound, enzyme and inhibitor concentrations equal (e.g., about 80 nM, 100 nM)”, the Vi/Vo amounted to 0.4.

On to `CSCC[C@H](NC(=O)OCc1cccnc1)C(=O)N[C@@H](CC(C)C)[C@@H](O)C[C@@H](C)C(=O)N[C@H](C(=O)NCc1ccccc1)C(C)C` [MMI-039], for which the Ki under setting [2] was determined as 1.4 µM and the Ki under setting [1] was 0.873 µM.

`CSCC[C@H](NC(=O)OCc1cccnc1)C(=O)N[C@@H](Cc1ccccc1)[C@@H](O)C[C@@H](C)C(=O)N[C@H](C(=O)NCc1ccccc1)C(C)C` [MMI-040]: the Ki reads like this: under setting [2], 2.07 µM; under setting [1], 1.29 µM.

`CSCC[C@H](NC(=O)[C@@H](NC(=O)OC(C)(C)C)C(C)C)C(=O)N[C@@H](CC(C)C)[C@@H](O)C[C@@H](C)C(=O)N[C@H](COCc1ccccc1)C(C)C` [MMI-041]: the Ki app entry under setting [3] is given as “N.I”. Further, the Ki result under setting [4] is “N.I”.

For `CSCC[C@H](NC(=O)[C@@H](NC(=O)OC(C)(C)C)C(C)C)C(=O)N[C@@H](CC(C)C)[C@@H](O)C[C@@H](C)C(=O)N[C@H](CO)C(C)C` [MMI-042], the Ki runs as follows: under setting [2], 36.5 µM; under setting [1], 22.8 µM.

Take `CC(C)C[C@H](NC(=O)[C@H](CCS(C)(=O)=O)NC(=O)[C@@H](NC(=O)OC(C)(C)C)C(C)C)[C@@H](O)C[C@@H](C)C(=O)N[C@H](CO)C(C)C` [MMI-043]: the Ki by setting is: under setting [2], 49.2 µM; under setting [1], 30.7 µM.

With `CSCC[C@H](NC(=O)[C@@H](NC(=O)OC(C)(C)C)C(C)C)C(=O)N[C@@H](CC(C)C)[C@@H](O)C[C@@H](C)C(=O)N1CCC[C@H]1C(=O)NCc1ccccc1` [MMI-044], under setting [3], the Ki app result is recorded as “N.I”. In addition, under setting [4], the Ki result is listed as “N.I”.

In the case of `CC(C)C[C@H](NC(=O)[C@H](CCS(C)(=O)=O)NC(=O)[C@@H](NC(=O)OC(C)(C)C)C(C)C)[C@@H](O)C[C@@H](C)C(=O)N1CCC[C@H]1C(=O)NCc1ccccc1` [MMI-045], the Ki app entry under setting [3] is listed as “N.I”. For the same compound, the Ki entry under setting [4] was “N.I”.
